4 molecules from patent publication US20160264935A1, “TRANSFORMED HUMAN PLURIPOTENT STEM CELLS AND ASSOCIATED METHODS” (McMaster University, priority 2009, published 2016) can be followed below.

The subject of series [1] is t-hPSCs that contain an Oct4-GFP reporter gene. The experiment in a line: Screen of 300 compounds for inducers of stem cell differentiation (Oct4-GFP/Hoechst ratio). It counts as cell-based, human. As to conditions: 72 hours after exposure; fluorescence plate reader. From the text: FIG. A: identification of inducers of stem cell differentiation. 300 compounds were screened to detect the fluorescence emitted from the Oct4-GFP reporter expressed in transformed cells and normalized to the relative cell nuclear number as defined by Hoechst staining. GFP/Hoechst ratios below zero, the threshold defined by BMP4 (a known stem cell differentiator), are considered potent inducers of stem cells differentiation. FIGS. B-C: the frequency of Oct4+ human iPS cells measured using flow cytometry following 7 days of treatment with Mefloquine (MEFLO) or thioridazine (THIO) compared to culture media (MEFCM) and culture media supplemented with DMSO (DMSO). […] FIGS. 1D-E: Measurements of cell viability using trypan blue on human mobilized peripheral blood treated with mefloquine or thioridazine for 5 days. […]
Plates containing the cells were analyzed 72 hours after exposure to the compounds using a fluorescence plate reader capable of detecting the fluorescence emitted from the Oct4-GFP reporter expressed in transformed cells and normalized to the relative cell nuclear number as defined by Hoechst staining. […]

The subject of a further series is human iPS cells. The experiment in a line: Frequency of Oct4+ cells by flow cytometry. It counts as cell-based. The conditions noted are these: 7 days of treatment; compared to MEFCM and DMSO. An excerpt: FIG. A: identification of inducers of stem cell differentiation. 300 compounds were screened to detect the fluorescence emitted from the Oct4-GFP reporter expressed in transformed cells and normalized to the relative cell nuclear number as defined by Hoechst staining. GFP/Hoechst ratios below zero, the threshold defined by BMP4 (a known stem cell differentiator), are considered potent inducers of stem cells differentiation. FIGS. B-C: the frequency of Oct4+ human iPS cells measured using flow cytometry following 7 days of treatment with Mefloquine (MEFLO) or thioridazine (THIO) compared to culture media (MEFCM) and culture media supplemented with DMSO (DMSO). […] FIGS. 1D-E: Measurements of cell viability using trypan blue on human mobilized peripheral blood treated with mefloquine or thioridazine for 5 days. […] Mefloquine (MEFLO) and thioridazine (THIO) were then tested in human iPS cells. Following 7 days of treatment, the frequency of Oct4+ cells were measured using flow cytometry and compared to culture media (MEFCM) and culture media supplemented with DMSO (DMSO) as a vehicle to augment compound solubility.
(In flow cytometry, cells or beads pass a laser one at a time.)

Series [2] relates to human mobilized peripheral blood. The experiment in a line: Cell viability by trypan blue exclusion. Type of series: cell-based. As to conditions: 0.1-10 μM, 5 days.
Procedure: FIGS. 1D-E: Measurements of cell viability using trypan blue on human mobilized peripheral blood treated with mefloquine or thioridazine for 5 days. […] In order to further investigate the compounds identified by the screen, mefloquine and thioridazine were used to treat human mobilized peripheral blood for 5 days. Cell viability was measured using trypan blue exclusion.
Series [3] deals with transformed pluripotent stem cells with EOS Oct4-GFP reporter. Briefly: High throughput plate reader screen for loss of pluripotency (Oct4-Alexa 647 antibody and GFP). Type of series: cell-based, human. As to conditions: 1, 10, 100 ng/mL BMP4 for 4 days, n=3. The protocol:
Transformed pluripotent stem cells were passaged as single cells using Trypsin and seeded at 1000 cells per well into 96 well optical imaging plates coated with Matrigel ® containing 100 ul mouse embryonic fibroblast conditioned media (MEF-CM). Plates were incubated at 37 degrees for 24 Hr before treatment with bone morphogenic protein 4 (BMP4) commenced. Cells were treated with either 1 ng/mL, 10 ng/mL, 100 ng/mL, or 0 ng/mL BMP4 for 4 days (n=3). After 4 days cells were fixed with 2% paraformaldehyde and stained with Oct4-Alexa 647 antibody. Cells were loaded into a plate reader and measured at excitation emission pairs of 650/665 and 488/520 nm to measure Oct4-Alexa 647 antibody (top graph) and GFP (bottom graph) respectively. Pluripotency (measured by the loss of OCT4 and GFP expression) decreased with the increase in differentiation inducing compound BMP4. Similar results were obtained when other compounds were tested. […]
The versatility of transformed human pluripotent stem cells is illustrated by the multiple types of assays that it enables. […] Cells were loaded into a plate reader and measured at excitation emission pairs of 650/665 and 488/520 nm to measure Oct4-Alexa 647 antibody (FIG. 7 top graph) and GFP (FIG. 7 bottom graph) respectively. Pluripotency (measured by the loss of OCT4 and GFP expression) decreased with the increase in differentiation inducing compound BMP4. […]

The subject of series [4] is transformed pluripotent stem cells that contain an Oct4-GFP reporter. Briefly: Microscope imaging of Oct4 antibody staining and GFP after BMP-4 treatment. The conditions noted are these: increased amounts of BMP-4, 4 days; microscope images. Type of series: cell-based, human. How it is done:
Transformed pluripotent stem cells that contain an Oct4-GFP reporter were plated, cultured, treated with BMP-4 and fixed as described in FIG. 7. Cells were permeabilized with 0.1% TritonX-100 and stained with Oct4 antibody conjugated with Alexa 647. The cell nuclei were stained with Hoechst 33342. Images were collected using 10× objective on Olympus microscope, and analysed using Image-Pro Plus software.
Cells were permeabilized with 0.1% TritonX-100 and stained with Oct4 antibody conjugated with Alexa 647. The cell nuclei were stained with Hoechst 33342. Images were collected using 10× objective on Olympus microscope, and analysed using Image-Pro Plus software.

The subject of series [5] is transformed stem cells (Oct4-GFP). The experiment in a line: High Content Screening of Oct4-GFP expression (ArrayScan HCS reader). It counts as cell-based, human. The protocol: At day 2 and 3 BMP4 was added to each of the treated wells at various concentrations. On day 4 microtiter plates containing treated transformed stem cells were imaged using the cellomics ArrayScan HCS reader (Thermofisher). Oct4-GFP expression was shown in green while cell nuclei are shown in blue (Hoescht 33342). A) No BMP untreated control.
Cells were grown as described in FIG. 9 with the exception of the addition of BMP4 which was replaced by DMSO at multiple concentrations as described in the Figure legends. DMSO is a chemical compound used in drug studies as a solvent which is known to induce stem cell differentiation. On day 5, after cell seeding and culture, microtiter plates were imaged using the ArrayScan HCS reader (Thermofisher). […] D) Cell numbers were quantified based on the automated detection and segregation of cells labelled by the nuclear dye Hoescht. […] All images were analyzed using the Cellomics software.
Transformed stem cells were seeded as single cells and grown in culture using standard stem cell culture conditions for 4 days. […] On day 4 microtiter plates containing treated transformed stem cells were imaged using the cellomics ArrayScan HCS reader (Thermofisher). […]
Due to image analysis limitations similar data could not be obtained when normal cells were used for the assays. […] All images were analyzed using the Cellomics software.

Counter-ions that a name gives are not always drawn.

For the molecule `OC(c1cc(C(F)(F)F)nc2c(C(F)(F)F)cccc12)C1CCCCN1` (centres unmarked) [Mefloquine HCl], in series [1], the “Induction of t-hPSC differentiation (GFP/Hoechst ratio below zero, the threshold defined by BMP4)” value is “potent inducers of t-hPSCs differentiation”. The “Frequency of Oct4+ cells” value in the series on human iPS cells is given as “decrease”. Besides, the “Cell viability relative to control samples (0 μM)” value in series [2] is given as “did not reduce cell viability”.
bone morphogenic protein 4 [BMP4]: the “Pluripotency (measured by the loss of OCT4 and GFP expression)” value in series [3] is listed as “decreased”. For the same molecule, in series [4], the “GFP fluorescence (Oct4-GFP reporter)” value is given as “decreased GFP fluorescence” and the Oct-4 antibody staining result is “decreased Oct-4 antibody staining”. Also, in series [5] (BMP4 added at day 2 and 3, imaged day 4), the Oct4-GFP expression result is recorded as “significant loss of GFP expression”.
Turning to `CSc1ccc2c(c1)N(CCC1CCCCN1C)c1ccccc1S2` (centres unmarked) [Thioridazine HCl], the “Induction of t-hPSC differentiation (GFP/Hoechst ratio below zero, the threshold defined by BMP4)” value in series [1] was “potent inducers of t-hPSCs differentiation”. Moreover, the “Frequency of Oct4+ cells” value with human iPS cells is reported as “decrease”. The “Cell viability relative to control samples (0 μM)” value in series [2] was “did not reduce cell viability”.
Take `C[S+](C)[O-]` [DMSO]: the Oct4-GFP expression result in series [5] (DMSO 0%, 0.01%, 2% (v/v) for 4 consecutive days, imaged day 5) is recorded as “decreasing expression levels of GFP”.
